Measured values from PMC4711283, “Immobilization of halophilic Aspergillus awamori EM66 exochitinase on grafted k-carrageenan-alginate beads” (3 Biotech, 2016).

Test system: T1, A. awamori EM66 exochitinase
T1 construct: native secreted enzyme from culture supernatant of honey isolate, partially purified by ethanol fractionation, free (not immobilised)
Assay: p-nitrophenol release at […] nm, Lineweaver-Burk plot
Type: biochemical, Aspergillus awamori
Details: free enzyme, partially purified; acetate buffer pH 5.0; 30 °C; apparent Km

- Km: 0.33 mg/mL
SMILES: CC(=O)N[C@H]1[C@H](Oc2ccc([N+](=O)[O-])cc2)O[C@H](CO)[C@@H](O)[C@@H]1O [PNP-β-GlcNAc, p-nitrophenyl-β-D-N-acetyl glucoseaminide]
